Experimental data from US20110223149A1, “PEPTIDOMIMETIC MACROCYCLES” (AILERON THERAPEUTICS, INC., priority 2009, published 2011).
Where a SMILES comes first, the peptide text is derived from it. Bridges are numbered along the chain shown (N, C = ends). [ ]: non-standard residue; d: D form. S5 = C=CCCC[C@](C)(N)C(=O)O

How the values were obtained:
Cathepsin D = Cathepsin D (Homo sapiens, UniProt P07339); format: in vitro ADME; conditions: pH 4.4
Description: For identification of Cathepsin B, D, and L metabolism, parent cross-linked peptide and positive control linear peptide (4 mM each in DMSO) was separately aliquoted (5 μL) to 1 mL volumes of 67 mM ammonium acetate solutions buffered either to pH 5.4 (cat B, L) and add 10 mM DTT, or to pH 4.4 (cat D) and add 0.117M KCl. Single enzyme working solution (10 μg/mL) was then added (40 μL) to each peptide solution (20 μM) to yield initial weight ratio (%) of 1:20 for each enzyme and peptide pair. Each mixture was placed in a 38-40° C. oven for incubation times of 30 and 60 min. At each time point, the reaction was stopped by addition of 500 μL of 48:48:2 v/v(%) hexafluoro-2-propanol/acetonitrile/TFA. A biphasic mixture formed after mixing and the bottom layer liquid was diluted (1:10) into acetonitrile: water and subsequently injected in duplicate for gradient LC/Ion Mobility TOF-MS analyses.
Ion mobility-MS and MS-MS analysis and peptide sequencing were performed on a Waters (Milford, Mass.) Synapt high-resolution ion-mobility-time-of flight mass spectrometer. Samples were prepared by dilution of the unpurified cross-linked peptide proteolysis product samples 10-fold into 1:1 acetonitrile-water containing 0.1% formic acid. LC-MS analyses were performed by reverse-phase gradient elution with 0.1% formic acid and 0.1% formic acid in acetonitrile as eluants at 500 μL/min. […]

Bcl-xL = Bcl-xL (Homo sapiens, UniProt Q07817); assay: Protein-ligand binding experiment by SEC-LC-MS; conditions: 1 μM SP-4 and 5 μM Bcl-xL, 60 min at room temperature
Description: Protein-ligand binding experiments for Bcl-xL. Simple protein-ligand binding experiments were conducted using the following representative procedure outlined for a simple system-wide control experiment using 1 μM SP-4 and 5 μM Bcl-xL. A 1 μL, DMSO aliquot of a 40 μM stock solution of SP-4 is dissolved in 19 μL of PBS (Phosphate-buffered saline: 50 mM, pH 7.5 Phosphate buffer containing 150 mM NaCl). The resulting solution is mixed by repeated pipetting and clarified by centrifugation at 10 000 g for 10 min. To a 4 μL, aliquot of the resulting supernatant is added 4 μL, of 10 μM BCL-xL in PBS. Each 8.0 μL experimental sample thus contains 40 pmol (1.5 μg) of protein at 5.0 μM concentration in PBS plus 1 μM SP-4 and 2.5% DMSO. Duplicate samples thus prepared for each concentration point are incubated for 60 min at room temperature, and then chilled to 4° C. prior to size-exclusion chromatography-LC-MS analysis of 5.0 μL injections. Samples containing a target protein, protein-ligand complexes, and unbound compounds are injected onto an SEC column, where the complexes are separated from non-binding component by a rapid SEC step. The SEC column eluate is monitored using UV detectors to confirm that the early-eluting protein fraction, which elutes in the void volume of the SEC column, is well resolved from unbound components that are retained on the column. […]

Chain of Bcl-xL (Q07817 whole entry, species assumed): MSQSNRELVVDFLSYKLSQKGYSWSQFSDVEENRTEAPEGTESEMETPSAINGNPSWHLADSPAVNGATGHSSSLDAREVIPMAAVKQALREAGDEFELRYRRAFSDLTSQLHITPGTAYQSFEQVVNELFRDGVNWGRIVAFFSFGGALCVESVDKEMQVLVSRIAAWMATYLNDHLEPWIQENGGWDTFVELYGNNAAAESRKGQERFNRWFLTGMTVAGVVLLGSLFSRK
Chain of Cathepsin D (P07339 65-412, species assumed): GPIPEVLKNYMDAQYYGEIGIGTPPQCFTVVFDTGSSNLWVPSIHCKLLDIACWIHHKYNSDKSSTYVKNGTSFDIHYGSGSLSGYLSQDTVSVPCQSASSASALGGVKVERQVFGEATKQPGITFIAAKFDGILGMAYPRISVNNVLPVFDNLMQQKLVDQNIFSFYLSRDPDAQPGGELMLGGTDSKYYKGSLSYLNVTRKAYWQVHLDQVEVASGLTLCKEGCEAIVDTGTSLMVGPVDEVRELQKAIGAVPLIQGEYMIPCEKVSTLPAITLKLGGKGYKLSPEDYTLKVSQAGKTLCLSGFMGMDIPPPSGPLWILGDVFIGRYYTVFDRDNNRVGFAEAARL

Row | Compound | cleavage site by cathepsin-D (proteolysis products) (Cathepsin D) | detection of protein-ligand complex with Bcl-xL (Bcl-xL)
1 | CC[C@H](C)[C@H](NC(=O)[C@H](Cc1c[nH]c2ccccc12)NC(=O)[C@H](CCCNC(=N)N)NC(C)=O)C(=O)N[C@@H](C)C(=O)N[C@@H](CCC(N)=O)C(=O)N[C@@H](C)C(=O)N[C@@H](CC(C)C)C(=O)N[C@@H](CCCNC(=N)N)C(=O)N[C@@]1(C)CCC/C=C\CCC[C@@](C)(C(=O)N[C@@H](Cc2ccccc2)C(=O)N[C@@H](CC(N)=O)C(=O)N[C@@H](C)C(=O)N[C@@H](Cc2ccccc2)C(=O)N[C@@H](Cc2ccc(O)cc2)C(=O)N[C@@H](C)C(=O)N[C@@H](CCCNC(=N)N)C(=O)N[C@@H](CCCNC(=N)N)C(N)=O)NC(=O)[C@H](CC(=O)O)NC(=O)CNC(=O)[C@H]([C@@H](C)CC)NC1=O [SP-1, Ac-RWIAQALR$IGD$FNAFYARR-NH2] (Ac-RWIAQALR[S5]IGD[S5]FNAFYARR-NH2; staple (Z) 9-13) | at F—Y residues | –
2 | Ac-IWIAQALR$IGD$FNAYYARR-NH2 [SP-4] | – | detection of the protein-ligand complex
